Results taken from US10993957B2 (NuCana plc, priority 2011, dated 2021).
Like-named read-outs stand apart in the source and are kept apart here.

Assays:
[1] = Stability in buffer at pH 8 by 31P NMR; assay type: physicochemical; details: 14 hours
Protocol: The stability of the prodrug CPF-373 towards hydrolysis at pH=8 was studied using in situ ^31P NMR (202 MHz). The ProTide CPF-373 (1) (4.9 mg) was dissolved in MeOD (0.1 mL) after which 0.5 mL buffer (pH=8) (prepared from a solution of 0.1 M Na2HPO4, which was adjusted by 0.1 M HCl) was added. Then the sample was transferred into an NMR tube, and a ^31P NMR experiment was performed at 37° C. recording the data every 12 minutes for 14 hours. Data were processed and analysed with the Bruker Topspin 2.1 program.
A chemical hydrolysis was evaluated under experimental conditions at pH 1 and pH 8 and monitored by ^31P NMR. During the assay (14 h) under acidic conditions (pH 1) only two peaks representing the two diastereoisomers were recorded.

human UP = human UP (Homo sapiens, UniProt Q16831); experiment: Phosphorolysis by human UP, HPLC; details: 100 μM compound, room temperature, 0-40 min
human UP, sequence (Q16831 whole entry): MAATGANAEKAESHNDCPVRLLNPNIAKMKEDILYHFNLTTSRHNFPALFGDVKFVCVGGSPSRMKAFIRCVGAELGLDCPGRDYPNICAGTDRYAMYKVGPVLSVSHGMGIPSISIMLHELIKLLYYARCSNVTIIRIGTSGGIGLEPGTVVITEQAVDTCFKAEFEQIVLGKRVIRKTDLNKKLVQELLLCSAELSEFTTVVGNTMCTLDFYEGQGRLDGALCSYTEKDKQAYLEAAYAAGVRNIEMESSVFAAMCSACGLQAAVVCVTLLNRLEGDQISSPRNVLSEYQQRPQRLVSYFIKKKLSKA
Protocol: (§1) Reaction mixtures containing 100 μM test compound and recombinant TP or UP (human TP: 8.6 ng/μL; E. coli TP: 3.0 ng/μL; human UP: 4 ng/mL) in a total volume of 500 μL reaction buffer (10 mM TrisHCl; 300 μM NaCl; 1 mM EDTA; 2 mM KH2PO4/K2HPO4) were incubated at room temperature. At different time points (i.e. 0, 20, 40 min) 100 μL aliquots of the reaction mixtures were withdrawn and heated at 95° C. for 3 min to inactivate the enzyme. […] The separation of Urd from uracil was performed by a linear gradient from 100% separation buffer (see above) to 60% separation buffer+40% acetonitrile (3 min 100% separation buffer; 6 min linear gradient of 100% separation buffer to 60% separation buffer+40% acetonitrile; 6 min 60% separation buffer+40% acetonitrile, followed by equilibration at 100% separation buffer).

Cem/TK^− = experiment: Cytostatic assay, thymidine kinase-deficient CEM/TK^− cells; assay type: cell-based, human; details: Homo sapiens, CEM-TK(-)
human TP = target: T1, human TP (Homo sapiens, UniProt P19971); experiment: Phosphorolysis by human TP, HPLC; details: 100 μM compound, room temperature, 0-40 min
T1 sequence (P19971 11-482): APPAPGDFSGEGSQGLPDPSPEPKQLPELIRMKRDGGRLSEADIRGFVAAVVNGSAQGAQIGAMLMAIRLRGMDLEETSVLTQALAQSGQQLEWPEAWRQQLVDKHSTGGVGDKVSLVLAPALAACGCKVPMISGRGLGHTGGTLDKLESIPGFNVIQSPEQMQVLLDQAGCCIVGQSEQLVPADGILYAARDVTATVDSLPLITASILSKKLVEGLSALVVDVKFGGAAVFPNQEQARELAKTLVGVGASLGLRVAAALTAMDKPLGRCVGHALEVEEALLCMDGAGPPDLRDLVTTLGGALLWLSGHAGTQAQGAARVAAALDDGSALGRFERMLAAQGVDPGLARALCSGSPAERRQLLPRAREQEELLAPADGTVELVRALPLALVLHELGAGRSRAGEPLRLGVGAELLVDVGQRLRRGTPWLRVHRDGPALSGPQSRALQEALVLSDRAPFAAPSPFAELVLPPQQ
Protocol: as §1

[2] = Stability in human serum by in situ 31P NMR; assay type: in vitro ADME; details: 37° C., after 12 hours and 30 minutes
Protocol: The stability of the prodrug CPF-373 in the presence of human serum was studied using in situ ^31P NMR (202 MHz). The ProTide CPF-373 (1) (5.0 mg) was dissolved in DMSO (0.05 mL) and D2O (0.15 mL). Then the sample was transferred into an NMR tube, which was inserted in the NMR chamber at 37° C. (with enough solvent to obtain a control NMR reading of the blank). Then 0.3 ml human serum was quickly added to the sample in the NMR tube. NMR experiments were programmed to record data every 15 minutes for 12 hours and 30 minutes. Because of excess noise and poor shimming profiles (most likely due to the biological media and concentration), individual spectra were further processed. After normal Fourier transform processing, each spectrum was deconvoluted (Lorentz-Gauss deconvolution) to reveal solely the frequency and area of spectral peaks without the baseline. Data recorded were processed and analysed with the Bruker Topspin 2.1 program.
Chemical stability studies on the prodrug CPF-373 (1) have been performed by exposing the compound to human serum and to aqueous buffers (pH 1.0 and 8.0) using in situ ^31P NMR. […]
The stability of compound CPF 386 in the presence of human serum was investigated using in situ ^31P NMR. A control ^31P NMR data of compound CPF 386 in DMSO and D2O were recorded. […] The ^31P NMR data were recorded every 15 minutes over 14 h. […]

SMILES: C[C@H](NP(=O)(OC[C@H]1O[C@@H](n2cc(F)c(=O)[nH]c2=O)CC1O)Oc1cccc2ccccc12)C(=O)OCc1ccccc1 (stereo partly drawn) [CPF 373, 5-Fluoro-2′deoxyuridine-5′-O-[1-naphthyl (benzoxy-L-alaninyl)] phosphate]
- Stability towards hydrolysis at pH 8 [1]: full stability
- Phosphorolysis by human UP (human UP): not affected
- IC50 (Cem/TK^−; Table 3, read-out: IC50 CEM/TK−): 0.32 µM
- IC50 (Cem/TK^−; Table 6, read-out: IC50 Cem/TK^−): 0.31 ± 0.06 µM
- Phosphorolysis by human TP (human TP): fully stable
- unchanged compound after incubation in human serum [2]: 73%
